The values below come from ChEMBL document CHEMBL1156829 (Proc Natl Acad Sci U S A, 2008).

Series [1] has as its system Plasmodium falciparum. The experiment in a line: NOVARTIS: Inhibition of Plasmodium falciparum 3D7 (drug-susceptible) proliferation in erythrocyte-based infection assay. Type of series: functional, organism-based. The conditions noted are these: Plasmodium falciparum, 3D7.
For series [2], the system named is Plasmodium falciparum. Kind of series: NOVARTIS: Inhibition of Plasmodium falciparum W2 (drug-resistant) proliferation in erythrocyte-based infection assay. In kind it is functional, organism-based. The conditions noted are these: Plasmodium falciparum, W2; read-out: EC50.
A short description of series [3]: NOVARTIS: Cytotoxicity against human hepatocellular carcinoma cell line (Huh7). In kind it is toxicity, cell-based, Huh-7. The conditions noted are these: Huh7 cells (hepatocellular carcinoma cell line).

Bounds are passed on as bounds.

One may read the EC50 as the concentration needed to bring the measured effect to its halfway point. A word on the CC50: it is the concentration that lowers cell viability or growth by half. Lower therefore signals greater toxicity to the cells. Consider `CN1CCN(c2ccc(Nc3c4ccccc4nc4ccccc34)cc2)CC1`, for which the EC50 was found to be 0.0567 µM in the series with Plasmodium falciparum [1] and 0.0955 µM in the series on Plasmodium falciparum [2]. In series [3], this compound came in with a CC50 of 6.76 µM.
The like results for `CC(=Cc1sc2ccc3occc3c2[n+]1CCO)C=C1Sc2ccc3ccoc3c2N1CCO.CCC(=Cc1sc2ccc3ccccc3c2[n+]1C)C=C1Sc2ccc3ccccc3c2N1C` were, in that order, over 0.373 µM, 0.144 µM and over 10 µM.
The corresponding values for `COc1cc(Nc2cncc(-c3ccncc3)n2)cc(OC)c1OC` are 1.08 µM, 1.42 µM and over 100 µM.
As to `OCCNc1nc(Nc2cccc(O)c2)nc2ccccc12`, the EC50 in the series on Plasmodium falciparum [1] is 0.203 µM; with Plasmodium falciparum [2] it was 1.01 µM. For the same compound, in series [3], the CC50 was 69.5 µM.
The like results for `Cc1ccc(NC(=O)c2ccc(NCCCN3CC(C)CC(C)C3)c([N+](=O)[O-])c2)cc1F` (stereo not given) were, in that order, 0.219 µM, 0.736 µM and over 53.6 µM.
The like results for `CCOC(=O)c1[nH]c2ccc(OC)cc2c1N=NN(C)C` were, in that order, 0.447 µM, 0.966 µM and 68.6 µM.
The corresponding values for `O=C(c1ccc(Cl)cc1Cl)N1CCCC(C(F)(F)F)C1` (stereo not given) are 0.663 µM, 1.4 µM and over 100 µM.
As for `COc1ccc(C(NC(=O)c2cccc(OC)c2)c2cc(Cl)c3cccnc3c2O)cc1` (stereo not given), the figures for the EC50 in the series on Plasmodium falciparum [1] and in the series on Plasmodium falciparum [2] were 0.983 µM and 1.38 µM, respectively. The CC50 in series [3] is over 100 µM.
The corresponding values for `Cc1cccc(NC(c2cccc(Cl)c2)c2ccc3cccnc3c2O)n1` (stereo not given) are 0.917 µM, 0.891 µM and over 62.4 µM.
Regarding `COc1ccc(NC(=O)N2CCN(C(=O)c3nc(-c4ccccc4)nc(C)c3C(=O)OC(C)C)CC2C)cc1` (stereo not given), the EC50 with Plasmodium falciparum [1] worked out at 0.633 µM; with Plasmodium falciparum [2], 0.141 µM. Also, the CC50 in series [3] was over 10 µM.
Consider `CCCCOc1ccc(C(=O)N(C)CCCNc2ccnc3cc(Cl)ccc23)cc1`, for which the figures for the EC50 with Plasmodium falciparum [1] and with Plasmodium falciparum [2] were 0.605 µM and 0.069 µM, respectively. For the same compound, the CC50 in series [3] is 4.79 µM.
Turning to `O=C(NN=Cc1cccc(Cl)c1)C1COc2ccccc2O1` (stereo not given), the EC50 is over 0.935 µM in the series with Plasmodium falciparum [1] and over 0.144 µM in the series with Plasmodium falciparum [2]. Also, in series [3], the CC50 is over 10 µM.
The corresponding values for `COc1ccc(C(OCC(=O)N2CCSCC2)c2ccncc2Cl)cc1` (stereo not given) are over 12.3 µM, 1.45 µM and over 100 µM.
With `Cc1nc(-c2nc3c(s2)CN(C(=O)c2ccncc2)CC3)cs1`, the EC50 was found to be 0.163 µM with Plasmodium falciparum [1] and 0.144 µM in the series with Plasmodium falciparum [2]. Further, in series [3], the CC50 was over 10 µM.
With `CC1CCCCN1CC(=O)N1CCN(C(=O)CN2CCCCC2C)CC1.CC=O` (stereo not given), the figures for the EC50 in the series with Plasmodium falciparum [1] and with Plasmodium falciparum [2] were over 1.25 µM and 0.0603 µM, respectively. In series [3], this compound displayed a CC50 of over 4.25 µM.
Regarding `Cc1noc(C)c1S(=O)(=O)N(Cc1ccccc1)CC(O)CN1CCC(NC(=O)Cc2cccs2)C1` (stereo not given), the EC50 with Plasmodium falciparum [1] came to 0.175 µM; in the series with Plasmodium falciparum [2], 0.141 µM. For the same compound, in series [3], the CC50 is over 10 µM.
The corresponding values for `CCOC(=O)C1=C(C)N=c2sc(=Cc3cc(Br)ccc3O)c(=O)n2C1c1ccccc1` (stereo not given) are 5.53 µM, 1.41 µM and over 100 µM.
`CCOC(=O)C1=C(C(=O)OCC)SC(=C2C(=S)C(C)(C)N(C(=O)c3cccc(F)c3)c3cc(C)ccc32)S1`: the EC50 in the series with Plasmodium falciparum [1] is over 7.52 µM; with Plasmodium falciparum [2], over 1.4 µM. For the same compound, the CC50 in series [3] was over 100 µM.
Consider `CN(CCCNc1ccnc2cc(Cl)ccc12)C(=O)c1ccc(Cl)c(Cl)c1`, for which the EC50 in the series on Plasmodium falciparum [1] worked out at 0.0366 µM; with Plasmodium falciparum [2], 0.122 µM. In series [3], this compound yielded a half-maximal cytotoxic concentration (CC50) of over 8.36 µM.
`N#Cc1c(N)n(CCc2ccc(Cl)cc2Cl)c2nc3ccccc3nc12`: the figures for the EC50 in the series with Plasmodium falciparum [1] and in the series on Plasmodium falciparum [2] were 0.828 µM and 0.485 µM, respectively. Also, in series [3], the CC50 came to 33.4 µM.
The like results for `CCCCC(=O)NC(c1cccc([N+](=O)[O-])c1)c1ccc2cccnc2c1O` (stereo not given) were, in that order, 0.376 µM, 0.267 µM and 18.8 µM.
The like results for `CC(C)CN1C(=O)N(CCCc2cccnc2)C(=O)C12CCN(C1CCOCC1)CC2` were, in that order, over 12.5 µM, 1.42 µM and over 100 µM.
Take `CCCCNC(=O)NC(Cc1c[nH]c2ccccc12)C(=O)NC1CCCCC1` (stereo not given): the results for the EC50 in the series on Plasmodium falciparum [1] and in the series with Plasmodium falciparum [2] were over 1.25 µM and over 0.0283 µM, respectively. Further, in series [3], the CC50 is over 2.02 µM.
The like results for `CC[n+]1c(/C=C/c2ccc(F)cc2)ccc2ccccc21` were, in that order, 0.122 µM, 0.14 µM and over 10 µM.
As to `CCNC(=S)NC1CC2CCCC(C1)N2CCc1ccccc1` (stereo not given), the EC50 in the series on Plasmodium falciparum [1] is 1.59 µM; in the series with Plasmodium falciparum [2], 1.39 µM. This compound also displayed a CC50 in series [3] of over 100 µM.
For `COc1ccc(C2CC(=O)C3=C(C2)NC(C)=C(C(=O)OC2CCCC2)C3c2cccc(C)c2)cc1OC` (stereo not given), the values for the EC50 in the series with Plasmodium falciparum [1] and in the series with Plasmodium falciparum [2] were 0.3 µM and 0.208 µM, respectively. Further, the CC50 in series [3] stood at 14.9 µM.
For `CC1CCCN(c2ccc(C(=O)NC3CC3)cc2[N+](=O)[O-])C1` (stereo not given), the EC50 amounted to 0.559 µM in the series with Plasmodium falciparum [1] and 1.46 µM in the series with Plasmodium falciparum [2]. The compound also showed a half-maximal cytotoxic concentration (CC50) in series [3] of over 100 µM.
The corresponding values for `COc1ccc(C=CC(=O)NC(=O)c2ccccc2O)cc1OC` are 1.29 µM, 1.39 µM and over 100 µM.
With `O=C(Nc1ccc(Cl)cc1)N1CCN(c2ccc3nncn3n2)CC1`, the figures for the EC50 in the series with Plasmodium falciparum [1] and with Plasmodium falciparum [2] were 2.06 µM and 1.38 µM, respectively. Further, in series [3], the CC50 was over 100 µM.
In the case of `Cc1cccc(-n2ccnc2SCC(=O)Nc2cc(C(F)(F)F)ccc2Cl)c1`, the EC50 with Plasmodium falciparum [1] was determined as 0.541 µM; with Plasmodium falciparum [2], 1.47 µM. The CC50 in series [3] is over 100 µM.
Take `CCC(C(=O)NCCCCNc1ccnc2cc(Cl)ccc12)c1ccccc1` (stereo not given): the EC50 in the series on Plasmodium falciparum [1] is 0.288 µM; in the series on Plasmodium falciparum [2] it was 0.169 µM. In series [3], this compound registered a CC50 of 11.5 µM.
The like results for `CC(C)(C)NC(=O)C(C1CC1)N1C(=O)c2cc(O)ccc2NC(=O)[C@@H]1CCCCN` (stereo not given in full) were, in that order, over 1.25 µM, 0.139 µM and over 10 µM.
Consider `COc1ccc(-c2noc(CC(=O)Nc3ccccc3C#N)n2)cc1`, for which the EC50 in the series with Plasmodium falciparum [1] was 6.08 µM; with Plasmodium falciparum [2], 1.38 µM. The CC50 in series [3] is over 100 µM.
The like results for `CC(C)OC(=O)CSc1nnc(CNc2nc(-c3ccccc3)cs2)n1C` were, in that order, 1.39 µM, 1.38 µM and over 100 µM.
Turning to `COC(=O)CC(NC(=O)c1ccc(C)cc1)c1ccc2c(c1)OCO2` (stereo not given), the EC50 in the series with Plasmodium falciparum [1] is over 1.68 µM; in the series with Plasmodium falciparum [2], 0.206 µM. In series [3], this compound returned a CC50 of 15 µM.
The like results for `Cc1ccc(-c2cc(C(F)(F)F)n3ncc(C(=O)Nc4cc(Cl)ccc4O)c3n2)cc1` were, in that order, 1.88 µM, 1.43 µM and over 100 µM.
Regarding `O=C(Nc1ccc([N+](=O)[O-])cc1Cl)c1cc(Br)ccc1O`, the figures for the EC50 in the series with Plasmodium falciparum [1] and with Plasmodium falciparum [2] were over 12.5 µM and 0.798 µM, respectively. The same compound had a CC50 in series [3] of 55.6 µM.
The corresponding values for `CCN(c1ccc(OC)cc1)S(=O)(=O)c1ccc(C)cc1` are over 12.5 µM, 1.37 µM and over 100 µM.
`O=C(Nc1ccc(Oc2cccnc2)cc1)C1CCN(Cc2ccc3nonc3c2)CC1`: the EC50 in the series on Plasmodium falciparum [1] amounted to 1.13 µM; in the series on Plasmodium falciparum [2], 1.42 µM. In addition, the CC50 in series [3] was over 100 µM.
Consider `COc1cc2c(cc1OC)C(COc1ccc(F)cc1)N(C(=O)c1ccc(OC(C)C)cc1)CC2` (stereo not given), for which the EC50 with Plasmodium falciparum [1] worked out at 0.155 µM; in the series with Plasmodium falciparum [2], 1.4 µM. Besides, in series [3], the CC50 is over 100 µM.
For `COc1cccc(C(C(=O)NC2CCCCC2)N(C(=O)c2snc(C(N)=O)c2N)c2ccc(C)cc2)c1OC` (stereo not given), the EC50 in the series with Plasmodium falciparum [1] was 3.44 µM; in the series on Plasmodium falciparum [2], 1.4 µM. In series [3], this compound yielded a CC50 of over 100 µM.
The like results for `CCOc1ccc2nc(C)cc(Nc3cccc(O)c3)c2c1` were, in that order, 0.201 µM, 0.289 µM and 19.8 µM.
`BrC(Br)(Br)c1ncc(-c2ccccc2)cn1`: the EC50 in the series with Plasmodium falciparum [1] worked out at 0.0433 µM; in the series with Plasmodium falciparum [2], 0.143 µM. In addition, in series [3], the CC50 is over 10 µM.
As for `COc1ccc(CNC2CCN(c3cccc(NC(=O)C4CC4)c3)CC2)cc1`, the EC50 worked out at 2.95 µM in the series with Plasmodium falciparum [1] and 0.948 µM in the series on Plasmodium falciparum [2]. The compound also returned a CC50 in series [3] of 65.1 µM.
The like results for `Cc1nc(-c2cnccc2C(F)(F)F)sc1C(=O)NN` were, in that order, over 11 µM, 1.39 µM and over 100 µM.
The corresponding values for `COc1ccc(C(=O)C2CC2c2ccc(Cl)cc2)cc1` (stereo not given) are 0.217 µM, 1.43 µM and over 100 µM.
The like results for `Cc1sc2ncnc(Nc3ccncc3)c2c1C` were, in that order, over 12.5 µM, over 1.45 µM and over 100 µM.
As for `COc1ccc(C)cc1-n1c(-c2ccc(Cl)cc2)cc2c1CC(C)(C)CC2=O`, the figures for the EC50 in the series with Plasmodium falciparum [1] and in the series on Plasmodium falciparum [2] were 0.00334 µM and over 0.145 µM, respectively. This compound registered a CC50 in series [3] of over 10 µM.
The corresponding values for `O=C(COC(c1cccs1)c1cccnc1Cl)N1CCN(C(=O)Nc2ccccc2)CC1` (stereo not given) are over 12.5 µM, 1.42 µM and over 100 µM.
The like results for `CN(CCCNc1ccnc2cc(Cl)ccc12)C(=O)c1cccc(Br)c1` were, in that order, 0.0596 µM, 0.137 µM and 9.59 µM.
On to `Cc1cccnc1NC(c1ccc([N+](=O)[O-])cc1)c1ccc2cccnc2c1O` (stereo not given), for which the EC50 came out at 0.14 µM in the series on Plasmodium falciparum [1] and 0.214 µM in the series with Plasmodium falciparum [2]. In series [3], half-maximal cytotoxicity (CC50) was put at 15 µM.
The like results for `Oc1c2c(nc3cc(-c4ccc(-c5ccccc5)cc4)nn13)CCCC2` were, in that order, 1.14 µM, 1.02 µM and over 73.8 µM.
For the compound `CC(=O)c1ccc(OCc2cc(C(=O)N3CCCCC3c3cccnc3)no2)cc1` (stereo not given), the EC50 came to 4.21 µM in the series on Plasmodium falciparum [1] and 1.37 µM in the series on Plasmodium falciparum [2]. The CC50 in series [3] was over 100 µM.
For `CCOC(=O)c1c(C)oc2c1C(=O)c1ccccc1C2=O`, the values for the EC50 in the series with Plasmodium falciparum [1] and in the series on Plasmodium falciparum [2] were 1.96 µM and 0.71 µM, respectively. This compound also displayed a half-maximal cytotoxic concentration (CC50) in series [3] of 49.3 µM.
The corresponding values for `O=C(CNCCc1ccccc1)NC(c1ccccc1)c1ccccc1` are 5.96 µM, 0.623 µM and 45.4 µM.
